The text below walks through data of patent US9347089B2, “Therapeutic and diagnostic strategies” (Children's Medical Center Corporation, priority 2008, dated 2016).

Data set [1] concerns miR-24. The data set can be described thus: miR-24 level by qRT-PCR relative to U6. Format: cell-based, human. The method, then: (§1) HepG2 cells were grown in DMEM supplemented with 10% FCS. HL60 and K562 cells were grown in RPMI-1640 supplemented with 10% FCS. K562 cells (0.5×10^6 cells/ml) were treated with TPA (16 nM, 2 d) or Hemin (100 μM, 4 d) for differentiation into megakaryocytes or erythrocytes, respectively. To induce macrophage or granulocyte differentiation, HL60 cells (0.5×10^6 cells/ml) were treated with TPA (16 nM, 2 d) or DMSO (1.25%, 5 d), respectively. We isolated human polymorphonuclear neutrophils (PMN) from whole blood after removing mononuclear cells and platelets by Ficoll-Hypaque density gradient centrifugation. Erythrocytes were lysed by treatment with ice-cold isotonic lysis buffer (0.155 M NH4Cl, pH 7.4). The remaining PMN cells were washed with Hanks' balanced salt solution and suspended in RPMI medium containing 10% (v/v) FCS. We isolated human macrophages from peripheral blood as described in Song et al. 2003.
(§2) Total RNA was isolated using Trizol (Invitrogen) and reverse transcribed using random hexamers and superscript II reverse transcriptase (Invitrogen). qRT-PCR was performed in triplicate samples using the SYBR Green master mix (Applied Biosystems) and the BioRad iCycler. Primers are provided in Supplemental Table 1. Results were normalized to GAPDH. miRNA quantitative PCR was done in triplicate using the TaqMan MicroRNA Assay from Applied Biosystems as per the manufacturer's instructions and normalized to U6 SnRNA.
(§3) HepG2 cells (2.5×10^5/well) were reverse transfected with 30 nM miRNA […] (cel-miR-67) mimics (Dharmacon) using NeoFx (Ambion) following the manufacturer's instructions. K562 cells were transfected with miRNA or control mimics (100 nM) using Amaxa nucleofection following the manufacturer's protocol. K562 cells were treated with TPA (16 nM, 2 d) and were transfected with 100 nM miR-24 ASO using lipofectamine 2000 (Invitrogen) and 36 h later these cells were exposed to indicated concentrations of bleomycin and cell viability was assessed 2 d later.

The test system of data set [2] is H2AX mRNA. The data set can be described thus: H2AX mRNA level by qRT-PCR. Format: cell-based, human. As to the method: as §1, §2, §3
In data set [3] the test system is K562 cells. Briefly: Cell proliferation by thymidine uptake. Format: cell-based, human. The following applies: TPA-treated K562 cells, by 12 h.
For data set [4], the system named is K562 cells. Briefly: Chromosome breakage analysis after γ-irradiation. The data set is classed as cell-based, human. Conditions: for Chromosome breaks and fragments versus control cells: 24 hr after 0.75 Gy γ-irradiation. As to the method:
K562 and HepG2 cultures were exposed in duplicate wells to indicated doses of γ-irradiation and incubated at 37° C. for indicated times in 5% CO2. Cells were harvested and processed for chromosomal analysis following standard methods (S1). 50-75 Wright-stained metaphases for each condition were scored for chromosomal aberrations.

Data set [5] deals with H2AX. The data set can be described thus: H2AX protein level by immunoblot (densitometry relative to H3). The data set is classed as cell-based, human.
The test system of data set [6] is K562 cells. The data set can be described thus: Cell viability assay after genotoxic drug, K562. The following applies: for Sensitivity to DNA damage (viability after bleomycin): viability 2 d later. The data set is classed as cell-based, human. The method, then: as §3
(§4) microRNA-transfected K562 or HepG2 cells were seeded (2×10^3 cells/100 μl) into octuplicate microtiter wells, incubated overnight, and then treated with indicated reagents or medium for 48 h. Viability was measured by CyQuant Cell Proliferation Assay Kit as per manufacturer's instructions (Molecular Probes). Results were expressed as OD520 relative to that of untreated cells.

The test system of data set [7] is HepG2 cells. The data set can be described thus: Cell viability assay after genotoxic drug, HepG2. The data set is classed as cell-based. As to the method: as §3, §4
Data set [8] has as its system K562 cells. Briefly: Single cell gel electrophoresis (comet) assay. Format: cell-based, human.
The subject of data set [9] is HepG2 cells. The data set can be described thus: Cell cycle analysis by propidium iodide flow cytometry. Format: cell-based. The following applies: HepG2 cells transfected 48 hr.
In data set [10] the test system is 3′UTR of H2AX mRNA. Briefly: Luciferase reporter assay with H2AX 3′UTR / MRE reporters in HepG2 cells. Format: cell-based. As to the method:
HepG2 cells (2.5×10^5/well) were reverse transfected in triplicate with 30 nM miR-24 mimic, miRNA-328 mimic or control miRNA mimic. Two days later, cells were transfected using Lipofectamine 2000 (Invitrogen) with psiCHECK2 (Promega) vector (0.5 μg/well) containing the 3′UTR of H2AX cloned in the multiple cloning site of Renilla luciferase or control. After 24 hr luciferase activities were measured using the Dual Luciferase Assay System (Promega) and TopCount NXT microplate reader (Perkin Elmer) per manufacturer's instructions. Data were normalized to Firefly luciferase. To test whether H2AX mRNA is directly regulated by miR-24, we cloned the two predicted MREs in the H2AX 3′ UTR into the multiple cloning site of psiCHECK2 and also the mutant versions that disrupted base-pairing between the binding sites and miR-24. HepG2 cells were cotransfected with these plasmids and miR-24 or control mimics for 48 h using Lipofectamine 2000, before we performed the luciferase assays as described above.

In data set [11] the test system is CHEK1. The data set can be described thus: CHEK1 protein level by immunoblot. Format: cell-based, human. Conditions: K562 cells. The method, then: K562 cells (1×10^6) were transfected with miR-24 mimics or control miRNA mimics (cel-miR-67) as above and 48 h later whole cell lysates were prepared using RIPA buffer (150 mM NaCl, 1% NP-40, 0.5% sodium deoxycholate, 0.1% SDS, 50 mM Tris, pH 8.0). Protein samples were quantified using Bradford reagent (BioRad) and resolved on 10% SDS-PAGE gels and analyzed by immunoblot probed with antibodies to H2AX (Upstate Biotech), CHEK1 (cell Signaling), histone H3 (Cell Signaling), tubulin (Sigma). All antibodies were used at a dilution of 1:1000.

For data set [12], the system named is UBC mRNA. The data set can be described thus: UBC mRNA level by qRT-PCR. The data set is classed as cell-based. The following applies: miR-24 over-expression in HepG2 cells. The method, then:
as §2, §3

For the compound `C[S+](C)[O-]` [DMSO], in [1] (HL60 cells), the “miR-24 level during differentiation” value is “increases”. Moreover, the “Decline of H2AX mRNA, primers specific for the longer transcript” value (shortened to “Decline of H2AX mRNA, primers specific”) in [2] (HL60 cell differentiation) is “two-fold”.
As to `CCCCCCCCCCCCCC(=O)O[C@@H]1[C@@H](C)[C@@]2(O)[C@@H](C=C(CO)C[C@]3(O)C(=O)C(C)=C[C@@H]23)[C@@H]2C(C)(C)[C@]12OC(C)=O` [TPA, 12-O-tetradecanoylphorbol-13-acetate], in [3], the Thymidine incorporation entry is “no thymidine incorporation”. Further, the “Chromosome breaks and fragments versus control cells” value in data set [4] is given as “significantly more sensitive”. In addition, the “Drop of H2AX protein level” value in [5] (HL60 cells after TPA induction) is recorded as 4 fold; in data set [5] (K562 cells after TPA induction), 14 fold. In addition, the “Sensitivity to DNA damage (viability after bleomycin)” value in data set [6] was “significantly hypersensitive”. The “miR-24 level during differentiation” value in data set [1] (HL60 cells) and in data set [1] (K562 cells) was “increases” throughout. The “Decline of H2AX mRNA, primers specific” value in data set [2] (HL60 cell differentiation) and in data set [2] (K562 cell differentiation) was “two-fold” each time.
As to hemin, in data set [1] (K562 cells), the “miR-24 level during differentiation” value is on record as “increases”. In data set [2] (K562 cell differentiation), the “Decline of H2AX mRNA, primers specific” value is on record as “two-fold”.
Turning to “miR-24: microRNA miR-24 (SEQ ID NO: 1), transfected as synthetic mimic (Dharmacon) for over-expression (UGGCUCAGUUCAGCAGGAACAG; synthetic mimic, further chemistry not given here)”, the “Effect on survival with miR-24-insensitive H2AX over-expression” value in [7] (HepG2 cells) is “fully rescued”. Further, in [7] (mimic-transfected HepG2 cells), the Cytotoxicity of bleomycin entry is on record as “significantly enhanced cytotoxicity” and the Cytotoxicity of cisplatin entry is “significantly enhanced cytotoxicity”. In data set [8] (K562 cells after bleomycin treatment), the “Comet tails compared to control miRNA-transfected cells” value is given as 5 fold. In addition, the “Comet moment after bleomycin with H2AX rescue” value in data set [8] (K562 cells co-transfected with H2AX expression plasmid lacking 3′UTR, versus miRNA control and vector) is reported as “no significant increase”. In addition, in data set [8] (K562 cells, no bleomycin), the Basal comet moment entry is given as “not significantly changed”. Further, in data set [8] (TPA-treated K562 cells), the “Repair of bleomycin-induced DNA damage by comet assay” value is “significantly enhances repair”. Moreover, in data set [4] (0.38 Gy), the “Chromosomal instability versus control cells” value was “more chromosomal instability”. Further, the “Chromosome breaks versus control cells” value in data set [4] (24 hr after 0.38 Gy) is reported as “not significantly more breaks”. For the same compound, the “Chromosome breaks and fragments versus control cells” value in [4] was “twice as many”. Besides, in data set [9], the G1 compartment result is “increases”. Moreover, in data set [10] (H2AX 3′UTR-containing reporter), the “Reduction of luciferase activity” value was “more than 2 fold”. Also, the “Effect on luciferase activity, mutated MRE reporters” value in data set [10] (MREs with mutated seed region) is recorded as “little effect”. The “Luciferase activity from control reporters” value in [10] (control reporter (vector)) is reported as “unchanged”. Further, the “Reduction of luciferase activity, wild-type miR-24 MRE reporters” value in [10] (either wild-type MRE inserted) is “approximately four-fold”. In addition, the CHEK1 protein entry in [11] is listed as “decrease”. For the same compound, the H2AX protein result in data set [5] (K562 cells transfected with mimic) is “reduces H2AX comparably to TPA differentiation”. Further, the “Reduction of H2AX protein expression” value in data set [5] (miRNA over-expression in HepG2 cells, 48 hr) is −8 fold. The “Effect on UBC mRNA levels” value in data set [12] is reported as “does not alter”. In data set [6], the “Effect on survival with miR-24-insensitive H2AX over-expression” value is on record as “fully rescued” and the “Sensitivity to DNA damage (viability after bleomycin)” value is “significantly hypersensitive”. Further, the “Hypersensitivity to bleomycin with miR-24-insensitive CHEK1 expression” value in data set [6] (CHEK1 cDNA lacking 3′UTR) is on record as “not rescued”. Moreover, the “Decrease of H2AX mRNA” value in [2] (miRNA over-expression in HepG2 cells, 48 hr, normalized to GAPDH) was 2 fold.
